Measured values from patent US8937071B2, “Compounds as rearranged during transfection (RET) inhibitors” (GlaxoSmithKline Intellectual Property Development Limited, priority 2013, dated 2015).
Where a name gives a salt, the structure may show the parent alone. Read-outs that look alike come from different tables or passages of the source.

Experiments:
TT cells = experiment: RET kinase cell-based proliferation assay; set-up: species or system human; conditions: 192 h, read-out: RET IC50
Excerpt: RET Kinase Cell-Based Proliferation Assay

RET kinase = RET kinase (Homo sapiens, UniProt P07949, C634W); experiment: RET kinase cell-based mechanistic assay (constitutive RET kinase phosphorylation in TT cells)
Protocol: RET Kinase Cell-Based Mechanistic Assay
The potency of the compound of the invention was tested for its ability to inhibit constitutive RET kinase phosphorylation in cell-based assay. […] 1.0E5 TT cells/well were plated in a 96-well cell culture plate and allowed to adhere overnight. […] IC50s were fitted using GraphPad Prism to a sigmoidal dose response.

[1] = human RET kinase cell-based proliferation assay, TT cells, eight days, CellTiter-Glo, Table 4

Chain of RET kinase (P07949 29-1114 C634W): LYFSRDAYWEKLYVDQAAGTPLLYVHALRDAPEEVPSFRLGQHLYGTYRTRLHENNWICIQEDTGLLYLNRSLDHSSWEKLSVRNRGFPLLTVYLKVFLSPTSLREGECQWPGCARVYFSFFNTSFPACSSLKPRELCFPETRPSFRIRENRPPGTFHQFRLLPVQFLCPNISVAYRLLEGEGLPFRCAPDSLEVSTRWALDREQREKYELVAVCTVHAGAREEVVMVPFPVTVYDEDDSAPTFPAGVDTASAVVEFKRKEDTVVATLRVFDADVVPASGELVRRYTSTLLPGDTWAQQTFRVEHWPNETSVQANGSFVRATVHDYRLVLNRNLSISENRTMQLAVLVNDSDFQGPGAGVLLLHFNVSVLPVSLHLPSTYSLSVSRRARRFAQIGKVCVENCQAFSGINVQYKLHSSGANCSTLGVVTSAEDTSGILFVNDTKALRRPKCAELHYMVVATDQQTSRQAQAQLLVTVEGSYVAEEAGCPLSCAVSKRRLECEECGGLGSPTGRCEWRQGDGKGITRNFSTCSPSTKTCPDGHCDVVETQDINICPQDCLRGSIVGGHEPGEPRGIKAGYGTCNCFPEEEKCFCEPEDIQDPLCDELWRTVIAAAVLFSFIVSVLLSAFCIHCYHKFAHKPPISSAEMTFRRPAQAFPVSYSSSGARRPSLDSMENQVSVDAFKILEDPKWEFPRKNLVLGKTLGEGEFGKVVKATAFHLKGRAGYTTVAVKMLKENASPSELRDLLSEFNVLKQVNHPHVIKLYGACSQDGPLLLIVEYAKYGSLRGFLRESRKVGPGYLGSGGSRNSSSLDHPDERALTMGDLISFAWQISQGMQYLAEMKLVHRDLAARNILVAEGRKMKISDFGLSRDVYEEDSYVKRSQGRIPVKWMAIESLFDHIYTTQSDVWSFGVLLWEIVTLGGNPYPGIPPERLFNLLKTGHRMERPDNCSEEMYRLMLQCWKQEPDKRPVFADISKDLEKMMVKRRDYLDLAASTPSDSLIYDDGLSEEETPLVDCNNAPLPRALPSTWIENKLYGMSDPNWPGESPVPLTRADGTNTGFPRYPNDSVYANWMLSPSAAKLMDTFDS

IC50 (RET kinase) [µM] | SMILES | IC50 (TT cells; [1]) [µM] | IC50 (TT cells; Homo sapiens, TT) [µM]
0.5 to 10 | CCOc1cc(-c2ccc(CC(=O)Nc3ccc(C(N)=O)c(C(F)(F)F)c3)c(F)c2)c[nH]c1=O [Example 23, 4-(2-(4-(5-ethoxy-6-oxo-1,6-dihydropyridin-3-yl)-2-fluorophenyl)acetamido)-2-(trifluoromethyl)benzamide] | 0.5 to 10 | 
0.5 to 10 | CCOc1cc(-c2ccc(CC(=O)Nc3ccc(Cl)c(Cl)c3)c(F)c2)c[nH]c1=O [Example 18, N-(3,4-Dichlorophenyl)-2-(4-(5-ethoxy-6-oxo-1,6-dihydropyridin-3-yl)-2-fluorophenyl)acetamide] | 0.5 to 10 | 
0.1 to 0.5 | CCOc1cc(-c2ccc(CC(=O)Nc3cc(C(F)(F)F)cc(C(F)(F)F)c3)c(F)c2)c[nH]c1=O [Example 25, N-(3,5-bis(trifluoromethyl)phenyl)-2-(4-(5-ethoxy-6-oxo-1,6-dihydropyridin-3-yl)-2-fluorophenyl)acetamide] | 0.5 to 10 | 
< 0.1 | CCOc1cc(-c2ccc(CC(=O)Nc3cc(C(C)(C)C(F)(F)F)on3)c(F)c2)c[nH]c1=O [Example 19, 2-(4-(5-Ethoxy-6-oxo-1,6-dihydropyridin-3-yl)-2-fluorophenyl)-N-(5-(1,1,1-trifluoro-2-methylpropan-2-yl)isoxazol-3-yl)acetamide] | < 0.1 | 
0.1 to 0.5 | CCOc1cc(-c2ccc(CC(=O)Nc3cc(C(F)(F)F)c(F)cc3F)c(F)c2)c[nH]c1=O [Example 24, N-(2,4-difluoro-5-(trifluoromethyl)phenyl)-2-(4-(5-ethoxy-6-oxo-1,6-dihydropyridin-3-yl)-2-fluorophenyl)acetamide] | 0.5 to 10 | 

The remaining lines, values behind:

SMILES | IC50 (RET kinase) [µM] | IC50 (TT cells; [1]) [µM] | IC50 (TT cells; Homo sapiens, TT) [µM]
CCOc1cc(-c2ccc(CC(=O)Nc3ccc(CN4CCN(CC)CC4)c(C(F)(F)F)c3)c(F)c2)c[nH]c1=O [Example 21, 2-(4-(5-Ethoxy-6-oxo-1,6-dihydropyridin-3-yl)-2-fluorophenyl)-N-(4-((4-ethylpiperazin-1-yl)methyl)-3-(trifluoromethyl)phenyl)acetamide, 2 Hydrochloride] |  | < 0.1 | 
CCOc1cc(-c2ccc(CC(=O)Nc3cnc(C(C)(C)O)c(C(F)(F)F)c3)c(F)c2)c[nH]c1=O [Example 1, 2-(4-(5-Ethoxy-6-oxo-1,6-dihydropyridin-3-yl)-2-fluorophenyl)-N-(6-(2-hydroxypropan-2-yl)-5-(trifluoromethyl)pyridin-3-yl)acetamide] | 0.1 to 0.5 | 0.1 to 0.5 | 
CCOc1cc(-c2ccc(CC(=O)Nc3ccc(C#N)c(C(F)(F)F)c3)c(F)c2)c[nH]c1=O [Example 9, N-(4-Cyano-3-(trifluoro-methyl)phenyl)-2-(4-(5-ethoxy-6-oxo-1,6-dihydro-pyridin-3-yl)-2-fluorophenyl)acetamide] | 0.1 to 0.5 | 0.1 to 0.5 | 
CCOc1cc(-c2ccc(CC(=O)Nc3cc(-n4cnc(C)c4)cc(C(F)(F)F)c3)c(F)c2)c[nH]c1=O [Example 11, 2-(4-(5-Ethoxy-6-oxo-1,6-dihydropyridin-3-yl)-2-fluorophenyl)-N-(3-(4-methyl-1H-imidazol-1-yl)-5-(trifluoromethyl)phenyl)acetamide, Hydrochloride] | < 0.1 |  | 0.1 to 0.5
CCOc1cc(-c2ccc(CC(=O)Nc3ccc(OCCO)c(C(F)(F)F)c3)c(F)c2)c[nH]c1=O [Example 13, 2-(4-(5-Ethoxy-6-oxo-1,6-dihydropyridin-3-yl)-2-fluorophenyl)-N-(4-(2-hydroxyethoxy)-3-(trifluoromethyl)phenyl)acetamide] | 0.1 to 0.5 | 0.1 to 0.5 | 
CCOc1ncc(NC(=O)Cc2ccc(-c3c[nH]c(=O)c(OCC)c3)cc2F)cc1C(F)(F)F [Example 2, N-(6-Ethoxy-5-(trifluoromethyl)pyridin-3-yl)-2-(4-(5-ethoxy-6-oxo-1,6-dihydropyridin-3-yl)-2-fluorophenyl)acetamide, Hydrochloride] | < 0.1 |  | 0.1 to 0.5
CCOc1cc(=O)[nH]cc1-c1ccc(CC(=O)Nc2ccc(C#N)c(C(F)(F)F)c2)cc1F [Example 7, N-(4-Cyano-3-(trifluoromethyl)phenyl)-2-(4-(4-ethoxy-6-oxo-1,6-dihydropyridin-3-yl)-3-fluorophenyl)acetamide] | 0.1 to 0.5 | 0.1 to 0.5 | 
CCOc1cc(-c2ccc(CC(=O)Nc3ccc(Cl)c(C(F)(F)F)c3)c(F)c2)c[nH]c1=O [Example 16, N-(4-Chloro-3-(trifluoromethyl)phenyl)-2-(4-(5-ethoxy-6-oxo-1,6-dihydropyridin-3-yl)-2-fluorophenyl)acetamide] | 0.1 to 0.5 | < 0.1 | 
CCOc1cc(-c2ccc(CC(=O)Nc3ccc(CC(C)(C)CO)c(C(F)(F)F)c3)cc2F)c[nH]c1=O [Example 6, 2-(4-(5-Ethoxy-6-oxo-1,6-dihydropyridin-3-yl)-3-fluorophenyl)-N-(4-(3-hydroxy-2,2-dimethylpropyl)-3-(trifluoromethyl)phenyl)acetamide] | < 0.1 | < 0.1 | 
CCOc1cc(-c2ccc(CC(=O)Nc3ccc(CC(C)(C)CO)c(C(F)(F)F)c3)c(F)c2)c[nH]c1=O [Example 5, 2-(4-(5-Ethoxy-6-oxo-1,6-dihydropyridin-3-yl)-2-fluorophenyl)-N-(4-(3-hydroxy-2,2-dimethylpropyl)-3-(trifluoromethyl)phenyl)acetamide] | < 0.1 | < 0.1 | 
CCOc1cc(-c2ccc(CC(=O)Nc3cc(C(F)(F)F)ccc3F)c(F)c2)c[nH]c1=O [Example 26, 2-(4-(5-ethoxy-6-oxo-1,6-dihydropyridin-3-yl)-2-fluorophenyl)-N-(2-fluoro-5-(trifluoromethyl)phenyl)acetamide] |  | 0.5 to 10 | 
CCOc1cc(-c2ccc(CC(=O)Nc3ccc(CN(C)C)c(C(F)(F)F)c3)c(F)c2)c[nH]c1=O [Example 17, N-(4-((Dimethylamino)methyl)-3-(trifluoromethyl)phenyl)-2-(4-(5-ethoxy-6-oxo-1,6-dihydropyridin-3-yl)-2-fluorophenyl)acetamide, Hydrochloride] | < 0.1 |  | 0.1 to 0.5
